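Assay format: 96-well plates, 48-hour exposure. Abbreviation: GI50, concentration required for 50% inhibition of growth.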 Calls of active or inactive are those of the source. Cut-off read from the data, not from the text of the source: active = GI50 up to about 1.1 µM and inactive = higher.
Legend:
Assay in all cases: NCI tumour cell line growth inhibition, 48 h
M14 = test system: M14
NCI-H226 = test system: NCI-H226
LOX IMVI = test system: LOX IMVI
SF-295 = test system: SF-295
Hs-578T = test system: Hs-578T
NCI-H23 = test system: NCI-H23
OVCAR-8 = test system: OVCAR-8
NCI/ADR-RES = test system: NCI/ADR-RES
SK-MEL-28 = test system: SK-MEL-28
OVCAR-4 = test system: OVCAR-4
SNB-19 = test system: SNB-19
A549 = test system: A549
IGROV-1 = test system: IGROV-1
K562 = test system: K562
HOP-92 = test system: HOP-92
OVCAR-3 = test system: OVCAR-3
A498 = test system: A498
EKVX = test system: EKVX
HT-29 = test system: HT-29
ACHN = test system: ACHN
MOLT-4 = test system: MOLT-4
SK-MEL-5 = test system: SK-MEL-5
Malme-3M = test system: Malme-3M
SW-620 = test system: SW-620
CCRF-CEM = test system: CCRF-CEM
786-0 = test system: 786-0
HCT-116 = test system: HCT-116
HOP-62 = test system: HOP-62
TK-10 = test system: TK-10
NCI-H460 = test system: NCI-H460
SR = test system: SR
DU-145 = test system: DU-145
UACC-257 = test system: UACC-257
RPMI-8226 = test system: RPMI-8226
OVCAR-5 = test system: OVCAR-5
SF-539 = test system: SF-539
UO-31 = test system: UO-31
MDA-MB-231 = test system: MDA-MB-231
HL-60 = test system: HL-60
HCT-15 = test system: HCT-15
UACC-62 = test system: UACC-62
SK-OV-3 = test system: SK-OV-3
RXF 393 = test system: RXF 393
KM12 = test system: KM12
MDA-N = test system: MDA-N
PC-3 = test system: PC-3
NCI-H522 = test system: NCI-H522
U-251 = test system: U-251
MCF7 = test system: MCF7
SF-268 = test system: SF-268
CAKI-1 = test system: CAKI-1
SK-MEL-2 = test system: SK-MEL-2
HCC 2998 = test system: HCC 2998
SN12C = test system: SN12C
COLO 205 = test system: COLO 205
MDA-MB-435 = test system: MDA-MB-435
SNB-75 = test system: SNB-75

With `COc1ccc(C[C@H]2COC(=O)[C@@H]2Cc2ccc(O)cc2)cc1OC` the GI50 (M14) was > 100 µM (inactive), the GI50 (NCI-H226) was > 100 µM (inactive) and the GI50 (LOX IMVI) was > 100 µM (inactive). The GI50 (SF-295) was > 100 µM (inactive), the GI50 (Hs-578T) was > 100 µM (inactive) and the GI50 (NCI-H23) was > 100 µM (inactive). The GI50 (OVCAR-8) was > 100 µM (inactive), the GI50 (NCI/ADR-RES) was > 100 µM (inactive) and the GI50 (SK-MEL-28) was > 100 µM (inactive). The GI50 (OVCAR-4) was > 100 µM (inactive), the GI50 (SNB-19) was > 100 µM (inactive) and the GI50 (A549) was > 10 µM (inactive). For the same molecule, the GI50 (IGROV-1) was > 100 µM (inactive), the GI50 (K562) was > 100 µM (inactive) and the GI50 (HOP-92) was > 100 µM (inactive). The GI50 (OVCAR-3) was > 100 µM (inactive), the GI50 (A498) was > 100 µM (inactive) and the GI50 (EKVX) was > 100 µM (inactive). The GI50 (HT-29) was > 100 µM (inactive), the GI50 (ACHN) was > 100 µM (inactive) and the GI50 (MOLT-4) was > 100 µM (inactive). For the same molecule, the GI50 (SK-MEL-5) was > 100 µM (inactive), the GI50 (Malme-3M) was > 100 µM (inactive) and the GI50 (SW-620) was > 100 µM (inactive). For the same molecule, the GI50 (CCRF-CEM) was > 100 µM (inactive), the GI50 (786-0) was > 100 µM (inactive) and the GI50 (HCT-116) was > 100 µM (inactive). For the same molecule, the GI50 (HOP-62) was > 100 µM (inactive), the GI50 (TK-10) was > 100 µM (inactive) and the GI50 (NCI-H460) was > 100 µM (inactive). For the same molecule, the GI50 (SR) was > 100 µM (inactive), the GI50 (DU-145) was > 100 µM (inactive) and the GI50 (UACC-257) was > 100 µM (inactive). The GI50 (RPMI-8226) was > 100 µM (inactive) and the GI50 (OVCAR-5) was > 100 µM (inactive).

For `O=c1[nH]n(Cc2ccccc2CCl)c2ccc([N+](=O)[O-])cc12`, the GI50 (M14) was 39.2 µM (inactive), the GI50 (NCI-H226) was 93.5 µM (inactive) and the GI50 (LOX IMVI) was 55.7 µM (inactive). For the same molecule, the GI50 (SF-295) was 37.8 µM (inactive), the GI50 (Hs-578T) was 85.5 µM (inactive) and the GI50 (SF-539) was 58.3 µM (inactive). For the same molecule, the GI50 (UO-31) was 88.3 µM (inactive), the GI50 (NCI-H23) was 83 µM (inactive) and the GI50 (OVCAR-8) was 40.5 µM (inactive). For the same molecule, the GI50 (MDA-MB-231) was 38.4 µM (inactive), the GI50 (NCI/ADR-RES) was 29.9 µM (inactive) and the GI50 (SK-MEL-28) was 34.5 µM (inactive). For the same molecule, the GI50 (OVCAR-4) was 37.1 µM (inactive), the GI50 (SNB-19) was 48.9 µM (inactive) and the GI50 (A549) was 31.2 µM (inactive). The GI50 (HL-60) was 26.6 µM (inactive), the GI50 (HCT-15) was 60.8 µM and the GI50 (IGROV-1) was > 100 µM (inactive). For the same molecule, the GI50 (K562) was 42.4 µM (inactive), the GI50 (UACC-62) was 30.5 µM (inactive) and the GI50 (HOP-92) was 34.5 µM (inactive). The GI50 (OVCAR-3) was 48.2 µM (inactive), the GI50 (A498) was 62.2 µM (inactive) and the GI50 (EKVX) was 45.2 µM (inactive). The GI50 (SK-OV-3) was 27.7 µM (inactive), the GI50 (HT-29) was 34.8 µM (inactive) and the GI50 (ACHN) was 55.3 µM (inactive). The GI50 (MOLT-4) was 26.6 µM (inactive), the GI50 (SK-MEL-5) was 13.4 µM (inactive) and the GI50 (RXF 393) was 32.9 µM (inactive). The GI50 (KM12) was 49.5 µM (inactive), the GI50 (Malme-3M) was 83.4 µM (inactive) and the GI50 (SW-620) was 49 µM (inactive). The GI50 (MDA-N) was 62.1 µM (inactive), the GI50 (CCRF-CEM) was 28.7 µM (inactive) and the GI50 (786-0) was 55.5 µM (inactive). For the same molecule, the GI50 (HCT-116) was 41.4 µM (inactive), the GI50 (HOP-62) was 47.6 µM (inactive) and the GI50 (TK-10) was 54.3 µM (inactive). For the same molecule, the GI50 (PC-3) was 31.3 µM (inactive), the GI50 (NCI-H522) was 22.9 µM (inactive) and the GI50 (NCI-H460) was 23.8 µM (inactive). The GI50 (SR) was 33.6 µM (inactive), the GI50 (U-251) was 42.3 µM (inactive) and the GI50 (MCF7) was 29.8 µM (inactive). For the same molecule, the GI50 (SF-268) was 35.3 µM (inactive), the GI50 (DU-145) was 59.7 µM (inactive) and the GI50 (CAKI-1) was 25 µM (inactive). For the same molecule, the GI50 (UACC-257) was 64.4 µM (inactive), the GI50 (RPMI-8226) was 32 µM (inactive) and the GI50 (SK-MEL-2) was 43.4 µM (inactive). The GI50 (HCC 2998) was 21.7 µM (inactive), the GI50 (SN12C) was 52.7 µM (inactive) and the GI50 (COLO 205) was 26.1 µM (inactive). The GI50 (OVCAR-5) was > 100 µM (inactive) and the GI50 (MDA-MB-435) was 35.1 µM (inactive).

With `O=C1C[C@H]2[C@H](c3ccc(Br)cc3)[C@H]3C(=O)c4ccccc4NC(=O)[C@@H]3[C@@]2(O)c2ccccc2N1` the GI50 (M14) was 12.3 µM (inactive), the GI50 (NCI-H226) was 14.4 µM (inactive) and the GI50 (LOX IMVI) was 13.8 µM (inactive). The GI50 (SF-295) was 24 µM (inactive), the GI50 (Hs-578T) was 48 µM (inactive) and the GI50 (SF-539) was 19.5 µM (inactive). The GI50 (NCI-H23) was 10.4 µM (inactive), the GI50 (OVCAR-8) was 19 µM (inactive) and the GI50 (MDA-MB-231) was 14.4 µM (inactive). For the same molecule, the GI50 (NCI/ADR-RES) was 14.9 µM (inactive), the GI50 (SK-MEL-28) was 26.5 µM (inactive) and the GI50 (OVCAR-4) was 12.5 µM (inactive). For the same molecule, the GI50 (SNB-19) was 38.2 µM (inactive), the GI50 (A549) was 11.6 µM (inactive) and the GI50 (HL-60) was 3.09 µM (inactive). The GI50 (HCT-15) was 27.9 µM, the GI50 (IGROV-1) was 8.22 µM (inactive) and the GI50 (K562) was 12 µM (inactive). The GI50 (UACC-62) was 24.8 µM (inactive), the GI50 (HOP-92) was < 0.01 µM (active) and the GI50 (OVCAR-3) was 10.6 µM (inactive). For the same molecule, the GI50 (A498) was 8.34 µM (inactive), the GI50 (EKVX) was 48.6 µM (inactive) and the GI50 (SNB-75) was 4.53 µM (inactive). The GI50 (SK-OV-3) was 21 µM (inactive), the GI50 (HT-29) was 10.7 µM (inactive) and the GI50 (ACHN) was 11.2 µM (inactive). For the same molecule, the GI50 (MOLT-4) was 3.94 µM (inactive), the GI50 (SK-MEL-5) was 19.3 µM (inactive) and the GI50 (RXF 393) was 3.48 µM (inactive). For the same molecule, the GI50 (KM12) was 11.7 µM (inactive), the GI50 (Malme-3M) was 19.7 µM (inactive) and the GI50 (SW-620) was 19.7 µM (inactive). For the same molecule, the GI50 (MDA-N) was 17.1 µM (inactive), the GI50 (CCRF-CEM) was 10.6 µM (inactive) and the GI50 (786-0) was 19.4 µM (inactive). For the same molecule, the GI50 (HCT-116) was 12.3 µM (inactive), the GI50 (HOP-62) was 19.6 µM (inactive) and the GI50 (TK-10) was 17.1 µM (inactive). For the same molecule, the GI50 (PC-3) was 8.15 µM (inactive), the GI50 (NCI-H522) was 12.1 µM (inactive) and the GI50 (NCI-H460) was 25.5 µM (inactive). The GI50 (SR) was 7.41 µM (inactive), the GI50 (U-251) was 22.1 µM (inactive) and the GI50 (MCF7) was 11.1 µM (inactive). For the same molecule, the GI50 (SF-268) was 19.1 µM (inactive), the GI50 (DU-145) was 24 µM (inactive) and the GI50 (CAKI-1) was 5.85 µM (inactive). For the same molecule, the GI50 (UACC-257) was 20.2 µM (inactive), the GI50 (RPMI-8226) was 9.82 µM (inactive) and the GI50 (HCC 2998) was 11.7 µM (inactive). For the same molecule, the GI50 (SN12C) was 24.5 µM (inactive), the GI50 (COLO 205) was 14.8 µM (inactive) and the GI50 (OVCAR-5) was 27.2 µM (inactive). For the same molecule, the GI50 (MDA-MB-435) was 10 µM (inactive).
